Reference: patent publication US20060004010A1, “Ccr4 antagonist and medical use thereof” (priority 2002, published 2006)
Values belong to the molecule of their own block, whether it stands above or below them.

Legend:
auricle swelling [1] = experiment: Mouse DTH model (TNCB); type: in vivo; conditions: mouse Balb/c, applied to ear at a concentration of 5%, 24 hours after TNCB
Protocol: The mouse (male, Balb/c) was shaved on the abdomen with hair clippers, and to the abdomen was applied ethanol solution (100 μL) of 7% (w/v) 2,4,6-trinitrochlrobenzene (TNCB), to sensitize the mouse. Seven days after sensitization, a 1% (w/v) TNCB solution in olive oil (20 μL) was applied to the auricle of the mouse (both sides of the right ear), to conduct induction. The present compound dissolved in a medium, was applied to both sides of the right ear (20 μL) 2 hours before applying TNCB. To the control groups, was applied only the medium. Right after the administration of the compound and 24 hours after TNCB application, the thickness of the mouse auricle was measured with Dialthickness gauge (manufactured by Ozaki Seisakusho), which was used as indicator for efficacy in mouse DTH model.

CCRF-CEM cell = experiment: Inhibition of MDC-induced T cell strain (CCRF-CEM cell) migration; type: cell-based; conditions: 4 hours
Protocol: Biological Example 2: Activity on cell migration stimulated by MDC 2-1: Inhibition tests on MDC-induced T cell strain (CCRF-CEM cell) migration A medium (0.3 mL) containing or free of MDC (20 nM, manufactured by PeproTech) was added to the lower chamber of 24-transwell plate, and further a medium (0.3 mL) containing a test compound solution of 2-fold concentration (containing 0.02% dimethylsulfoxide (DMSO)) or a medium (0.3 mL) containing DMSO only was added thereto. To the upper chamber, CCRF-CEM cell suspension prepared in 1×10^6 cells/50 μl and the test compound solution of 2-fold concentration (0.05 m]L) were added. The test was initiated by superimpose the upper chamber on the lower chamber. The chambers were incubated in a carbon gas incubator (5% CO2, 95% humidity) kept at 37° C. for 4 hours, and the cells remaining in the upper chamber were sucked up and removed. Then, 0.1 ml of a buffer (phosphate-buffered saline (PBS) containing ethylenediamine tetra-acetate sodium (EDTA) (20 μM) was added thereto, and subjected- to reaction at 4° C. for 30 minutes. The transwell plate was centrifuged (1000 r.p.m.) for 5 minutes, and the incubation liquid (600 μL) in the lower chamber was collected, and the cell number was counted using Flow Cytometer (manufactured by Becton-Dickinson). […]

human CCR4 = biological target: T1, human CCR4 (Homo sapiens, UniProt P51679); experiment: Inhibition of MDC-induced transient Ca ion increase in CCR4/CHO cells; type: cell-based; conditions: human CCR4 stably overexpressing CHO cell; recombinant human MDC 10 nM; read-out: IC50 value, inhibition of Ca2+ transient increase by MDC
T1 construct: expressed in transfected cells; host or cells: CHO-dhfr(-)
T1 sequence (P51679 1-360): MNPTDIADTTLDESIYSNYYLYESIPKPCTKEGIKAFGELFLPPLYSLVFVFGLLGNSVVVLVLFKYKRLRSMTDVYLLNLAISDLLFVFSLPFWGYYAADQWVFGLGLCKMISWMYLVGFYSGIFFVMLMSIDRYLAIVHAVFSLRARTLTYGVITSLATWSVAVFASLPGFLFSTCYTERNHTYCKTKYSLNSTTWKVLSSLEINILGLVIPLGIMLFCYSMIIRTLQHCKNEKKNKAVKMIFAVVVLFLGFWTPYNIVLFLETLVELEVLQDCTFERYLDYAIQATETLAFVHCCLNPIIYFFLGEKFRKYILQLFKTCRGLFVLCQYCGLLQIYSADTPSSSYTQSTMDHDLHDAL
Protocol: 1-1: Isolation of Human CCR4 Gene
Human bone marrow cell cDNA was prepared using Marathon cDNA amplification kit (manufactured by Clontech). PCR primers hCCR4XbaI-F1 (SEQ ID NO:1) and hCCR4XbaI-R1 (SEQ ID NO:2) were designed based on the sequence of GenBankX85740.
Using the human bone marrow cell cDNA as the template and using Ex Taq (manufactured by Takara), a PCR reaction (2 minutes at 95° C.→[30 seconds at 95° C., 45 seconds at 60° C., 1 minute at 72° C.]×35 times) was carried out. The thus amplified PCR product was subjected to 1% agarose gel electrophoresis, purified using QIAquick Gel Extraction Kit (manufactured by QUIAGEN) and then digested with a restriction enzyme Xbal. […]
The thus established human CCR4 stably overexpressing CHO cell (CCR4/CHO cell) was suspended in Ham's F-12 medium and FBS (10%) and dispensed into a 96-well plate at 3.0×10^4 cells/well. […] Transient increase in the intracellular Ca^2+ concentration induced by the human MDC was measured using a Ca^2+ detector for 96-well (manufactured by Hamamatsu Photonics), and inhibition ratio (%) of the test compound was calculated by the following equation: Inhibition ratio=[(Ec−Ea)/Ec]×100 • Ec: measured value of Ca^2+ transient increase by MDC; and • Ea: measured value of Ca^2+ transient increase by MDC when a test compound was added […]

TNFα = experiment: Mouse TNFα production model by LPS stimulation; type: in vivo; conditions: mouse C57BL/6, oral, dose of 100 mg/kg, LPS 60 mg/kg i.p.
Protocol: 5-1: Mouse TNFα Production Model by LPS Stimulation
The present compound suspended in a medium, was orally applied to a mouse (male, C57BL/6), and after 0.5 hour, lipipolysaccharide (LPS, 055:B5, Sigma) was peritoneally administered to the mouse at a dose of 60 mg/kg. To the control groups was orally applied only the medium. Sixty minutes after LPS treatment, heparin-added blood collection was conducted from the abdominal vena cava under ether anesthesia, and centrifuged (12,000 r.p.m.) at 4° C. for 3 minutes, to give the plasma. The thus obtained plasma sample was stored at −80° C. before use. TNFα in the plasma was quantified using an ELISA kit (R&D systems).

auricle swelling [2] = experiment: Mouse dermatitis model to which hapten is continuously applied (TNCB); type: in vivo; conditions: mouse Balb/c, repeated TNCB, applied to ear at a concentration of 5%
Protocol: 4-2: Mouse Dermatitis Model to which Hapten is Applied
To the auricle (both sides of the right ear) of the mouse (male, Balb/c), 1% (w/v) TNCB solution (acetone:olive oil=4:1) (20 μL) was applied to conduct first sensitization. Seven days after sensitization, 1% (w/v) TNCB (acetone:olive oil=4:1) (20 μL) was applied to the mouse auricle, to conduct induction (Day 0). Furthermore, on Days 2, 4, 6, 8, 10, 12, 14 and 16, the same procedure as on Day 0 was repeated. The compound of the present invention was dissolved in a medium, applied to both sides of the right ear (20 μL) 2 hours before applying TNCB. To the control groups, was applied only the medium. Right after the administration of the compound and 24 hours after TNCB application, the thickness of the mouse auricle was measured with Dialthickness gauge (manufactured by Ozaki Seisakusho), which was used as indicator for efficacy in mouse dermatitis model to which hapten was continuously applied.

[3] = test system: leukocyte infiltration into the lung; experiment: Mouse OVA-induced asthma model; type: in vivo; conditions: mouse C57BL/6, oral, dose of 30 mg/kg
Protocol: 3-1: Mouse OVA-Induced Asthma Model Ovalbumin (OVA, 0.2 mg/mL) and Alum (8 mg/mL) prepared in physiological saline were intraperitoneally administered (500 μL) to the mouse (male, C57BL/6) on Day 1 (test starting day) and Day 8 (1 week thereafter), to sensitize the mouse. On Days 15 to 21, the mouse was taken to an inhalation chamber (W: 240 mm×L: 240 mm×H: 120 mm), and a 2% OVA solution was sprayed with an ultrasonic wave type nebulizer (NE-U12, manufactured by Omron) for 20 minutes, to thus conduct induction. The compound of the present invention suspended in a medium, was administered orally at 30 minutes before OVA sensitization on Day 8 and at 30 minutes before OVA induction on Days 15 to 21. To the control group was administered only the medium. Three hours after OVA inhalation on Day 21, the mouse was exsanguinated, the catheter tube was inserted into the trachea, and the lung was washed with heparin-containing physiological saline (10 U/ml), to give a bronchoalveolar lavage fluid (BALF). Leukocyte number in BALF was counted using hemocyte counter (SF-3000, manufactured by Sysmex).

IC50 (CCRF-CEM cell): 10 nM
SMILES: COc1ccc(COc2nc(C)cnc2NS(=O)(=O)c2ccc(C)cc2)cc1OCCN(C)C [Example 6(1), 6-methyl-2-((3-(2-dimethylaminoethyloxy)-4-methoxyphenyl)methyloky)-3-(4-methylphenylsulfonylamino)pyrazine]
auricle swelling (auricle swelling [1]): suppressed the auricle swelling

IC50 (human CCR4): 16 nM
SMILES: COc1ccc(COc2nc(Br)cnc2NS(=O)(=O)c2ccc(C)cc2)cc1OC [Example 1(2), 6-bromo-2-((3,4-dimethoxyphenyl)methyloxy)-3-(4-methylphenylsulfonylamino)pyrazine]

IC50 (human CCR4): 130 nM
SMILES: Cc1ccc(S(=O)(=O)Nc2ncc(Br)nc2OCc2cccnc2)cc1 [Example 1(1), 6-bromo-2-((pyridin-3-yl)methyloxy)-3-(4-methylphenylsulfonylamino)pyrazine]
TNFα production by LPS stimulation (plasma TNFα) (TNFα): suppressed TNFα production by LPS stimulation

SMILES: COc1ccc(COc2nc(Br)cnc2NS(=O)(=O)c2ccc(C)cc2)cc1OCCN(C)C [Example 1(3), 6-bromo-2-((3-(2-dimethylaminoethyloxy)-4-methoxyphenyl)methyloxy)-3-(4-methylphenylsulfonylamino)pyrazine]
auricle swelling (auricle swelling [2]): suppressed the auricle swelling | leukocyte infiltration into the lung (leukocyte number in BALF) [3]: suppressed leukocyte infiltration into the lung
